pIC50: −log10 of the molar value.
Columns and labels:
mGluR5 = biological target: T1, mGluR5 (Homo sapiens, UniProt P41594); experiment: Fluorescence-based Ca2+ mobilization assay; type: cell-based; conditions: HEK293 cells overexpressing mGluR5; L-glutamate at EC80
T1 construct: expressed in transfected cells; host or cells: HEK293
Method: In order to measure the activity on the mGluR5, an experiment was carried out to check the change in the intracellular Ca^2+ level using the HEK293 cell line permanently overexpressing the mGluR5. The cells in the cell culture medium were aliquoted into a 384-well plate coated with poly-D-lysine and cultured in a 37° C. incubator supplied with 5% CO2. The next day, the medium was removed and a dye loading buffer—in which a reagent capable of measuring Ca^2+ was dissolved—was added, and then incubated at 37° C. for 60 minutes. The test compounds were dissolved in 100% DMSO at a final concentration of 10 mM to make a stock solution. The starting concentration of […] was prepared from the stock solution, followed by serial dilutions to prepare working solutions (test compound working solutions). The test compound working solutions were added to the cells that were incubated in the dye loading buffer, which were maintained for 30 minutes at room temperature in a light-shielding state before measurement. The Ca^2+ level change induced by L-glutamate at EC80 concentration was measured for 2 minutes using FLIPR Tetra (MDS Analytical Technologies). The fluorescent Ca^2+ signal values in the presence of the test compounds were normalized to the fluorescent signal elicited by […] concentration of L-glutamate as 100% and that elicited by vehicle as 0% to estimate % inhibition of the test compounds. The efficacy of the test compounds was calculated as IC50 values and represented in Table 1. (+: 1,000-2,000 nM, ++: 500-1,000 nM, +++: 100-500 nM, ++++: less than 100 nM).

human 5-HT2AR = biological target: T2, human 5-HT2AR (Homo sapiens, UniProt P28223); experiment: HTRF-based IP1 accumulation assay (5-HT2AR antagonistic effect); type: cell-based; conditions: HEK293 cells overexpressing human 5-HT2AR; serotonin at EC80
T2 construct: expressed in transfected cells; host or cells: HEK293
Method: The 5-HT2AR antagonistic effect of the test compounds was confirmed by measuring the production amount of IP1 using the HEK293 cell line permanently overexpressing the human 5-HT2AR. The test compounds were dissolved in 100% DMSO to a final concentration of 10 mM. The starting concentration of 10 μM was prepared from the stock solution, followed by serial dilutions to prepare working solutions in a buffer containing lithium chloride (LiCl). The cells and compounds prepared in the test buffer were placed in a 96-well plate and incubated at room temperature for 10 minutes. Serotonin of EC80 concentration was added, followed by incubation at 37° C. for 30 minutes in a light-shielding state. To measure IP1 accumulation in cells, JP1-d2 acceptor and IP1-Cryptate donor-which are HTRF-based substances for fluorescence signals-were added and incubated for 1 hour at room temperature in a light-shielded state. The fluorescent emission signals of acceptor and donor were detected, and HTRF ratio values were substracted by mean value of serotonin control. The percentage of activation was calculated by normalization of the serotonin control (0%) and IP1 control (100%). The IC50 values of the test compounds are represented in Table 1. (+: 1,000-2,000 nM, ++: 500-1,000 nM, +++: 100-500 nM, ++++: less than 100 nM).

T1 sequence (P41594 21-1212): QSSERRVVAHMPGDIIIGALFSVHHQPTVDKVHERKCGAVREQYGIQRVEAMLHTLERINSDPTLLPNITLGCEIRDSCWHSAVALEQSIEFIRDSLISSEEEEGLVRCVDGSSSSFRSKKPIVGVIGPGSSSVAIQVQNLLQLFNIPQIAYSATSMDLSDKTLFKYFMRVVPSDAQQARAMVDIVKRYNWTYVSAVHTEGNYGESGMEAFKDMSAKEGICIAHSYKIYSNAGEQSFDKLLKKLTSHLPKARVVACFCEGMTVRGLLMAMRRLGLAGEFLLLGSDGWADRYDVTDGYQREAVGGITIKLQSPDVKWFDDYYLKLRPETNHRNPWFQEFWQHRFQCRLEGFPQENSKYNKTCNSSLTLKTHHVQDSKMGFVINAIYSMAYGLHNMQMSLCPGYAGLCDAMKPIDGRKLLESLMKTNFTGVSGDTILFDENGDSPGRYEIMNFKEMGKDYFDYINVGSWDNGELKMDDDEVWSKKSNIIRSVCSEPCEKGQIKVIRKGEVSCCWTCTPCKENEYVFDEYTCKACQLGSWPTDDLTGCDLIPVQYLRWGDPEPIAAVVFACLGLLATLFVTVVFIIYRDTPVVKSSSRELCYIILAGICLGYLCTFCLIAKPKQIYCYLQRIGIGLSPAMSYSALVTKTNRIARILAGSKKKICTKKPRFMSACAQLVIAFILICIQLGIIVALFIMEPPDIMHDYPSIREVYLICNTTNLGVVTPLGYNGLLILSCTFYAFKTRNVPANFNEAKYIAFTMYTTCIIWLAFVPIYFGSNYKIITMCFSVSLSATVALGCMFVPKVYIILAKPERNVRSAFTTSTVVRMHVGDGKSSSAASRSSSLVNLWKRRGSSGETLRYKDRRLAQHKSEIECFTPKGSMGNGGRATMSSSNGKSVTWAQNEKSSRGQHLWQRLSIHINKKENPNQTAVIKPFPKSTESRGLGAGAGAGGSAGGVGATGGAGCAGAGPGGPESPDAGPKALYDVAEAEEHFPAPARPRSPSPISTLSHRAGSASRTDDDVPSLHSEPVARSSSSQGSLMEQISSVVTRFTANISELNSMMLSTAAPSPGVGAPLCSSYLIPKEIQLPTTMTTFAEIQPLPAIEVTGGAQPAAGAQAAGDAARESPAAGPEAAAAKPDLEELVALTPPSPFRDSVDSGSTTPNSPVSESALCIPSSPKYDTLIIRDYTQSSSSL
T2 sequence (P28223 whole entry): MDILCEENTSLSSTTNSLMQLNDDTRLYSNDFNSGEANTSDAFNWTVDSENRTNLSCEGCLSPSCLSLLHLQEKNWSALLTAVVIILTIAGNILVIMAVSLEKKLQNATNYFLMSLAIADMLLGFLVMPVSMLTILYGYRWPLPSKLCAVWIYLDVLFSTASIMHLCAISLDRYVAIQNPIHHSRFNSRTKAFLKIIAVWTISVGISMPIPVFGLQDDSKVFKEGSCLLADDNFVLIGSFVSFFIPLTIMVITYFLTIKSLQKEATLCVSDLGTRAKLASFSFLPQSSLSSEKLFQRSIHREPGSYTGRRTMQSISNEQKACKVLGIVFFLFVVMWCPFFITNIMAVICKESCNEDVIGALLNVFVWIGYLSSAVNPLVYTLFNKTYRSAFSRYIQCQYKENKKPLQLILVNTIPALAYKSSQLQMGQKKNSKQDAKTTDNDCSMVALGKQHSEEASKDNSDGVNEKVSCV

| SMILES | pIC50 (mGluR5) | pIC50 (human 5-HT2AR) |
| --- | --- | --- |
| CC1(CNC(=O)c2ccc(C#Cc3ccccc3F)cc2)CCOCC1 [Example 36, 4-((2-fluorophenyl)ethynyl)-N-((4-methyltetrahydro-2H-pyran-4-yl)methyl)benzamide] | > 7.00 | 6.00 to 6.30 |
| O=C(NCC1(NC2CC2)CCC1)c1ccc(C#Cc2ccccn2)cc1 [Example 8, N-((1-(cyclopropylamino)cyclobutyl)methyl)-4-(pyridin-2-ylethynyl)benzamide] | 6.00 to 6.30 | 5.70 to 6.00 |
| O=C(NCC1(NC2CC2)CCCCCC1)c1ccc(C#Cc2ccc(F)cc2)cc1 [Example 14, N-((1-(cyclopropylamino)cycloheptyl)methyl)-4-((4-fluorophenyl)ethynyl)benzamide] | 6.30 to 7.00 | > 7.00 |
| O=C(NCC1CCOCC1)c1ccc(C#Cc2ccccc2F)cc1F [Example 35, 2-fluoro-4-((2-fluorophenyl)ethynyl)-N-((tetrahydro-2H-pyran-4-yl)methyl)benzamide] | > 7.00 | 5.70 to 6.00 |
| O=C(NCC1(N2CCOCC2)CCCC1)c1ccc(C#Cc2ccccc2F)cc1 [Example 23, 4-((2-fluorophenyl)ethynyl)-N-((1-morpholinocyclopentyl)methyl)benzamide] | 6.00 to 6.30 | 6.30 to 7.00 |
| O=C(NCC1(NC2CC2)CCCCCC1)c1ccc(C#Cc2ccc(F)c(F)c2)cc1 [Example 18, N-((1-(cyclopropylamino)cycloheptyl)methyl)-4-((3,4-difluorophenyl)ethynyl)benzamide] | 5.70 to 6.00 | 6.00 to 6.30 |
| O=C(NCC1(NC2CC2)CCCCCC1)c1ccc(C#Cc2ccc(F)cn2)cc1 [Example 15, N-((1-(cyclopropylamino)cycloheptyl)methyl)-4-((5-fluoropyridin-2-yl)ethynyl)benzamide] | 6.00 to 6.30 | 6.30 to 7.00 |
| NC(=O)CC1(CNC(=O)c2ccc(C#Cc3ccccc3F)cc2)CCCCC1 [Example 77, N-((1-(2-amino-2-oxoethyl)cyclohexyl)methyl)-4-((2-fluorophenyl)ethynyl)benzamide] | > 7.00 | 5.70 to 6.00 |
| O=C(NCC1(NC2CC2)CCCC1)c1ccc(C#Cc2ccc(F)cc2)cc1 [Example 13, N-((1-(cyclopropylamino)cyclopentyl)methyl)-4-((4-fluorophenyl)ethynyl)benzamide] | 6.00 to 6.30 | > 7.00 |
| O=C(NCC1(NC2CC2)CCC1)c1ccc(C#Cc2ccncc2)c(F)c1 [Example 7, N-((1-(cyclopropylamino)cyclobutyl)methyl)-3-fluoro-4-(pyridin-4-ylethynyl)benzamide] | 5.70 to 6.00 | 6.30 to 7.00 |
| O=C(NCC1(NC2CC2)CCCCC1)c1ccc(C#Cc2ccc(F)cc2)cc1 [Example 19, N-((1-(cyclopropylamino)cyclohexyl)methyl)-4-((4-fluorophenyl)ethynyl)benzamide] | 5.70 to 6.00 | > 7.00 |
| CN(C)C(=O)CC1(CNC(=O)c2ccc(C#Cc3ccccc3F)cc2)CCCCC1 [Example 81, N-((1-(2-(dimethylamino)-2-oxoethyl)cyclohexyl)methyl)-4-((2-fluorophenyl)ethynyl)benzamide] | 6.00 to 6.30 | 6.30 to 7.00 |
| CNC(=O)CC1(CNC(=O)c2ccc(C#Cc3ccccc3F)cc2)CCCCC1 [Example 80, 4-((2-fluorophenyl)ethynyl)-N-((1-(2-(methylamino)-2-oxoethyl)cyclohexyl)methyl)benzamide] | 6.30 to 7.00 | 6.30 to 7.00 |
| O=C(NCC1CCCCO1)c1ccc(C#Cc2ccccc2F)cc1 (stereo not shown) [Example 54, 4-((2-fluorophenyl)ethynyl)-N-((tetrahydro-2H-pyran-2-yl)methyl)benzamide] | > 7.00 | 6.30 to 7.00 |
| O=C(NC[C@@H]1CCCOC1)c1ccc(C#Cc2ccc(F)cc2F)cc1 [Example 124, (S)-4-((2,4-difluorophenyl)ethynyl)-N-((tetrahydro-2H-pyran-3-yl)methyl)benzamide] | 6.30 to 7.00 | 6.30 to 7.00 |
| CC(C)NC1(CNC(=O)c2ccc(C#Cc3ccccc3F)cc2)CCCC1 [Example 30, 4-((2-fluorophenyl)ethynyl)-N-((1-(isopropylamino)cyclopentyl)methyl)benzamide] | 6.00 to 6.30 | > 7.00 |

The remaining lines, values ahead:

| pIC50 (mGluR5) | pIC50 (human 5-HT2AR) | SMILES |
| --- | --- | --- |
| > 7.00 | 6.00 to 6.30 | O=C(NCC1CCC(F)(F)CC1)c1ccc(C#Cc2ccc(F)cc2F)cc1 [Example 121, N-((4,4-difluorocyclohexyl)methyl)-4-((2,4-difluorophenyl)ethynyl)benzamide] |
| > 7.00 | > 7.00 | CC1(CNC(=O)c2ccc(C#Cc3ccc(F)cc3F)cc2)CCC1 [Example 107, 4-((2,4-difluorophenyl)ethynyl)-N-((1-methylcyclobutyl)methyl)benzamide] |
| 6.30 to 7.00 | 6.30 to 7.00 | CCC1(CNC(=O)c2ccc(C#Cc3ccc(F)cc3)cc2)COC1 [Example 112, N-((3-ethyloxetan-3-yl)methyl)-4-((4-fluorophenyl)ethynyl)benzamide] |
| 6.30 to 7.00 | 6.00 to 6.30 | O=C(NC[C@H]1C[C@@H](O)C1)c1ccc(C#Cc2ccccc2F)cc1 [Example 85, 4-((2-fluorophenyl)ethynyl)-N-(((1s,3s)-3-hydroxycyclobutyl)methyl)benzamide] |
| 6.30 to 7.00 | 6.30 to 7.00 | O=C(NC[C@@H]1CCOC1)c1ccc(C#Cc2ccccc2F)cc1 [Example 93, (S)-4-((2-fluorophenyl)ethynyl)-N-((tetrahydrofuran-3-yl)methyl)benzamide] |
| > 7.00 | 6.00 to 6.30 | CC1(CNC(=O)c2ccc(C#Cc3ccccc3F)cc2)CCCO1 (stereo not shown) [Example 98, 4-((2-fluorophenyl)ethynyl)-N-((2-methyltetrahydrofuran-2-yl)methyl)benzamide] |
| 5.70 to 6.00 | 5.70 to 6.00 | O=C(NCC1(F)COC1)c1ccc(C#Cc2ccccc2F)cc1 [Example 103, N-((3-fluorooxetan-3-yl)methyl)-4-((2-fluorophenyl)ethynyl)benzamide] |
| 5.70 to 6.00 | 6.00 to 6.30 | O=C(NCC1(N2CCOCC2)CCC1)c1ccc(C#Cc2ccccc2F)cc1 [Example 96, 4-((2-fluorophenyl)ethynyl)-N-((1-morpholinocyclobutyl)methyl)benzamide] |
| 6.30 to 7.00 | 6.00 to 6.30 | O=C(NC[C@@H]1CCCOC1)c1ccc(C#Cc2ccc(F)cc2)cc1 [Example 100, (S)-4-((4-fluorophenyl)ethynyl)-N-((tetrahydro-2H-pyran-3-yl)methyl)benzamide] |
| > 7.00 | 6.00 to 6.30 | [2H]C(NC(=O)c1ccc(C#Cc2ccccc2F)cc1)C1(C)COC1 (stereo not shown) [Example 95, 4-((2-fluorophenyl)ethynyl)-N-((3-methyloxetan-3-yl)methyl-d)benzamide] |
| 5.70 to 6.00 | 5.70 to 6.00 | CC1(CNC(=O)c2ccc(C#Cc3ccccc3F)c(F)c2)COC1 [Example 84, 3-fluoro-4-((2-fluorophenyl)ethynyl)-N-((3-methyloxetan-3-yl)methyl)benzamide] |
| > 7.00 | 6.30 to 7.00 | O=C(NC[C@H]1CCCO1)c1ccc(C#Cc2ccc(F)cc2)cc1 [Example 110, (R)-4-((4-fluorophenyl)ethynyl)-N-((tetrahydrofuran-2-yl)methyl)benzamide] |
| 6.30 to 7.00 | 5.70 to 6.00 | O=C(NC[C@H]1C[C@H](O)C1)c1ccc(C#Cc2ccccc2F)cc1 [Example 86, 4-((2-fluorophenyl)ethynyl)-N-(((1r,3r)-3-hydroxycyclobutyl)methyl)benzamide] |
| > 7.00 | 6.30 to 7.00 | CC1(CNC(=O)c2ccc(C#Cc3ccc(F)cc3)cc2)CCC1 [Example 106, 4-((4-fluorophenyl)ethynyl)-N-((1-methylcyclobutyl)methyl)benzamide] |
| > 7.00 | > 7.00 | CC1(CNC(=O)c2ccc(C#Cc3ccc(F)cc3)cc2)CCCO1 (stereo not shown) [Example 116, 4-((4-fluorophenyl)ethynyl)-N-((2-methyltetrahydrofuran-2-yl)methyl)benzamide] |
| 6.00 to 6.30 | > 7.00 | O=C(NC[C@@H]1CCOC1)c1ccc(C#Cc2ccc(F)cc2F)cc1 [Example 113, (S)-4-((2,4-difluorophenyl)ethynyl)-N-((tetrahydrofuran-3-yl)methyl)benzamide] |

From US12435051B2, “Dual modulator of mGluR5 and 5-HT2A receptor, and use thereof” (Vivozon Inc., priority 2020, dated 2025)
